# Results published in patent publication US20050164370A1 (priority 2003, published 2005).
# Columns and labels:
# [1] = target: T1, cytokinin receptor AHK3 (Arabidopsis thaliana, UniProt Q9C5U1); conditions: TM182-AHK3, DOLU+Glu agar, 10 μM, 30° C. for 30 hours
# T1 sequence (Q9C5U1 1-1036): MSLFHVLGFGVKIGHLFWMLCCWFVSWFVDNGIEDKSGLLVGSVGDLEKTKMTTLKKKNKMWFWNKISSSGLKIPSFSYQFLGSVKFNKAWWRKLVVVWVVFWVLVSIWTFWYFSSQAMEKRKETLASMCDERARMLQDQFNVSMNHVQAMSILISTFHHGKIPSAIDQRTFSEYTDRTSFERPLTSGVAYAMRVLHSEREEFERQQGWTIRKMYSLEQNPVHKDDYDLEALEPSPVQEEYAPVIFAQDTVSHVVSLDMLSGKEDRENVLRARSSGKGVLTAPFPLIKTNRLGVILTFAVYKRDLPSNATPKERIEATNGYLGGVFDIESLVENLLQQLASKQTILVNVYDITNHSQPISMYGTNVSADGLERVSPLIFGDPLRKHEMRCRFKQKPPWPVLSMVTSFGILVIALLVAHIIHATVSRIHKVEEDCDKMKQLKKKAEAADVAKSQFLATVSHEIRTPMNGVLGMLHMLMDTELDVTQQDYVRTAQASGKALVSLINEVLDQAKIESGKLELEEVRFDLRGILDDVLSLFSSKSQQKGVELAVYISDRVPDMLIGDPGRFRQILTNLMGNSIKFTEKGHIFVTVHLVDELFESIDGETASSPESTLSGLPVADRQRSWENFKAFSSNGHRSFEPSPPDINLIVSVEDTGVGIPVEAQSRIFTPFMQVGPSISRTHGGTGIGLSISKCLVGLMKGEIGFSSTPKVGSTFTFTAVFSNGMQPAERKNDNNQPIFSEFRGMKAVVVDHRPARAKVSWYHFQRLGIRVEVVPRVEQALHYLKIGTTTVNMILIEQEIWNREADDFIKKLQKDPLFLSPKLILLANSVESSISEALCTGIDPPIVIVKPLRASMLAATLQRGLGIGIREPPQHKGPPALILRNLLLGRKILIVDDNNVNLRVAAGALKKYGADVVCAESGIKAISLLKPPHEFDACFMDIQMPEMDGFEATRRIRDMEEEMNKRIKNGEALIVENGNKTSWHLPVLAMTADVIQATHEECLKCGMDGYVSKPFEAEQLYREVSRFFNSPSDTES
# Description: A culture solution 10 μl (about 800 clones of yeast) of the transformed cells TM182-CRE1, TM182-AHK2, TM182-AHK2Δ and TM182-AHK3 produced by the example 12 was spotted on DOLU+Glu agar media containing 10 μM of trans-zeatin and cultured at 30° C. for 30 hours. After incubation, the growth state of the transformed cells was observed and photographed by a digital camera.
# [2] = test system: transformed cells TM182-CYC1-CYC1IPT4; conditions: TM182-CYC1-CYC1IPT4, DOHLU+Glu agar containing 10 μM trans-zeatin, 30° C. for 30 hours
# Description: (§1) After incubation, the growth state of the transformed cells was observed and photographed by a digital camera.
# [3] = test system: transformed cells TM182-CYC1-ADHIPT5; conditions: TM182-CYC1-ADHIPT5, DOHLU+Glu agar containing 10 μM trans-zeatin, 30° C. for 30 hours
# Description: as §1
# [4] = test system: transformed cells TM182-AHK2-ADHIPT4; conditions: TM182-AHK2-ADHIPT4, DOHLU+Glu agar containing 10 μM trans-zeatin, 30° C. for 30 hours
# Description: as §1
# [5] = test system: transformed cells TM182-CYC1-CYC1IPT5; conditions: TM182-CYC1-CYC1IPT5, DOHLU+Glu agar containing 10 μM trans-zeatin, 30° C. for 30 hours
# Description: as §1
# [6] = test system: transformed cells TM182-AHK2-CYC1IPT5; conditions: TM182-AHK2-CYC1IPT5, DOHLU+Glu agar containing 10 μM trans-zeatin, 30° C. for 30 hours
# Description: as §1
# [7] = test system: transformed cells TM182-AHK2-ADHIPT5; conditions: TM182-AHK2-ADHIPT5, DOHLU+Glu agar containing 10 μM trans-zeatin, 30° C. for 30 hours
# Description: as §1
# [8] = test system: transformed cells TM182-CRE1-CYC1IPT4; conditions: TM182-CRE1-CYC1IPT4, DOHLU+Glu agar containing 10 μM trans-zeatin, 30° C. for 30 hours
# Description: as §1
# [9] = test system: transformed cells TM182-CRE1-ADHIPT4; conditions: TM182-CRE1-ADHIPT4, DOHLU+Glu agar containing 10 μM trans-zeatin, 30° C. for 30 hours
# Description: as §1
# [10] = test system: transformed cells TM182-CYC1-ADHIPT4; conditions: TM182-CYC1-ADHIPT4, DOHLU+Glu agar containing 10 μM trans-zeatin, 30° C. for 30 hours
# Description: as §1
# [11] = test system: transformed cells TM182-AHK2-CYC1IPT4; conditions: TM182-AHK2-CYC1IPT4, DOHLU+Glu agar containing 10 μM trans-zeatin, 30° C. for 30 hours
# Description: as §1
smiles,measurement,setting,value
C/C(=C\CNc1ncnc2nc[nH]c12)CO [trans-zeatin],growth state of the transformed cells as compared with media containing no trans-zeatin,[1],high growth
same,growth state of the transformed cells,[2],not observed to grow
same,growth state of the transformed cells,[3],not observed to grow
same,growth state of the transformed cells,[4],observed to grow
same,growth state of the transformed cells,[5],not observed to grow
same,growth state of the transformed cells,[6],observed to grow
same,growth state of the transformed cells,[7],observed to grow
same,growth state of the transformed cells,[8],observed to grow
same,growth state of the transformed cells,[9],observed to grow
same,growth state of the transformed cells,[10],not observed to grow
same,growth state of the transformed cells,[11],observed to grow
